Results: article PMC8143291, “Cytotoxicity and Microbicidal Activity of Commonly Used Organic Solvents: A Comparative Study and Application to a Standardized Extract from Vaccinium macrocarpon” (Toxics, 2021)

Experiments:
[1] = system: CCL-1 (transformed mouse fibroblasts, NCTC clone 929); test: MTT dye-reduction cytotoxicity assay (ISO 10993-5); assay type: cell-based; conditions: solvent alone, 72 h, at least 70% of cells viable, n = 3
Source text: (§1) The cell lines utilized in this study included the human tumor lines A-375 (malignant melanoma) and A-431 (non-melanoma epidermoid squamous skin carcinoma) as well as the models for non-tumorigenic cells—HaCaT (immortalized human keratinocytes) and CCL-1^TM (transformed mouse fibroblasts, NCTC clone 929). The first three cell lines were obtained from CLS Cell Lines Service (GmbH, Eppelheim, Germany). CCL-1^TM was purchased from the American Type Culture Collection (ATCC, Manassas, VA, USA). Cells were maintained in a controlled environment—sterile cell culture flasks in a CO2 incubator Panasonic MCO-18AC (Panasonic Healthcare co., ltd, Oizumi-Machi, Japan) at 37 °C and a humidified atmosphere containing 5% CO2. CCL-1 was cultured in MEM with 10% heat-inactivated horse serum and 2 mM L-glutamine, and the cell culture medium for the rest of the cell lines was DMEM-HG with 4.5 g/L glucose with the addition of 10% heat-inactivated fetal bovine serum and 4 mM L-glutamine. Pen/strep (concentration of penicillin G sodium 10^5 Units/L and of streptomycin sulfate 100 mg/L) was added to both culture media. The cell lines were maintained as an adherent monolayer in a log phase. The cells were sub-cultivated about 1–3 times per week after the monolayer reached 80–90% confluence. The medium was removed from the flask, and the cell monolayer was washed with 3–5 mL PBS. The cells were incubated with 0.05% EDTA in PBS for 8–10 min, followed by the next step where all cell lines were subjected to enzyme cell detachment. HaCaT and CCL-1 monolayers were detached with 1 mL solution of trypsin/EDTA (0.1%/0.05% for HaCaT and 0.25% (w/v)/0.53 mM for CCL-1) and incubated for 2–5 min at 37 °C (for HaCaT) or at room temperature (for CCL-1 cells), whereas Accutase® was used for A-375 and A-431 lines. The incubation lasted until the separation and dispersion of the cells in the monolayer were observed using light microscopy. In the end, all cell lines were resuspended in 10 mL medium and centrifuged for 3 min at 300× g. The cell pellet was resuspended in fresh medium and sub-cultivated at a seeding density of 1.0 × 10^4 cells/cm^2.
(§2) The MTT test was performed in order to determine the median inhibitory (IC50) and MTC concentrations of the solvents and PAC according to Annex C, ISO 10993-5 [2, 21]. Briefly, 100 µL of the cell suspension (1 × 10^5 cells/mL) were seeded per well in 96-well plates with a flat bottom. The cells were incubated for 24 h, allowing them to enter the log phase of their growth. On the 24th hour, the cells were treated with the solvents or CystiCran® solutions in concentrations ranging between 0.004% and 2% volume fraction (v/v) and incubated further for 72 h. The incubation periods are following the recommendations of the FDA guide for the use of ISO 10993-1 [1]. At the end of the incubation period, 10 µL of an MTT solution (5 mg/mL) were added to each well, and the plates were kept at 37 °C for 2 hours. Thereafter, the medium was aspirated, and the formed formazan crystals were dissolved in 100 μL/well of 2-propanol supplemented with 5% formic acid. The same solvent was used as a blank. Untreated cells were considered as a negative control. […] The absorption was measured at 540 nm (reference filter at 690 nm) on a microplate reader ELx800 (BioTek Instruments, Inc., Winooski, VT, Winooski, VT, USA).
(§3) The IC50 values from the MTT assay were evaluated with a non-linear regression analysis (Curve fit, GraphPad Prizm 6.01 software, GraphPad Software Inc., San Diego, CA, USA) using sigmoidal concentration–response curves. The cell viability is presented as a percentage of the untreated control. At least four wells were seeded for every concentration. Three independent assays were performed (n = 3).

[2] = system: HaCaT (immortalized human keratinocytes); test: MTT dye-reduction cytotoxicity assay (ISO 10993-5); assay type: cell-based; conditions: solvent alone, 72 h, at least 70% of cells viable, n = 3
Source text: as §1, §2, §3

Bacillus subtilis = conditions: cited from earlier work
[3] = system: breast cancer, mouse macrophage and human umbilical vein endothelial cells; set-up: method as in doi:10.17795/ajmb-33453; conditions: cited from earlier work

CN(C)C=O [DMF, N,N-dimethylformamide]
MTC (maximum tolerated concentration) [1]: 0.03 % (v/v) | MTC (maximum tolerated concentration) [2]: 0.03 % (v/v) | tolerated concentration (Bacillus subtilis): ≥ 10 % v/v | maximum tolerated concentration (MTC) / applicable concentration [3]: 0.1 % v/v
